Assay results: ChEMBL document CHEMBL1201862, “PubChem BioAssay data set” (2004)
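Grown in 96-well plates, cells were treated for 48 hours with each compound at five concentrations. Insufficient inhibition: endpoint recorded as highest concentration tested. GI50: concentration for 50% inhibition of growth.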 Active and inactive are the calls of the source. Cut-off read from the data, not from the text of the source: active = GI50 up to about 1.1 µM and inactive = higher.

Assays:
Assay in all cases: DTP human tumour cell line panel, 48 h
[1] = system: SF-539
[2] = system: SK-OV-3
[3] = system: MOLT-4
[4] = system: SF-268
[5] = system: SR
[6] = system: KM12
[7] = system: HOP-92
[8] = system: OVCAR-3
[9] = system: SN12C
[10] = system: HOP-62
[11] = system: HT-29
[12] = system: HL-60
[13] = system: NCI-H226
[14] = system: DLD-1
[15] = system: ACHN
[16] = system: RPMI-8226
[17] = system: NCI-H23
[18] = system: Hs-578T
[19] = system: NCI/ADR-RES
[20] = system: A498

CC#CCC1CCC(OCC)=CC1=O (configuration not stated)
GI50 [1]: > 100 µM (inactive)
GI50 [2]: > 100 µM (inactive)
GI50 [3]: > 100 µM (inactive)
GI50 [4]: > 100 µM (inactive)
GI50 [5]: > 100 µM (inactive)
GI50 [6]: > 100 µM (inactive)
GI50 [7]: > 100 µM (inactive)
GI50 [8]: > 100 µM (inactive)
GI50 [9]: > 100 µM (inactive)
GI50 [10]: > 100 µM (inactive)
GI50 [11]: > 100 µM (inactive)
GI50 [12]: > 100 µM (inactive)
GI50 [13]: 92.7 µM (inactive)
GI50 [14]: > 100 µM (inactive)
GI50 [15]: > 100 µM (inactive)
GI50 [16]: > 100 µM (inactive)
GI50 [17]: > 100 µM (inactive)

O=C(CCC/C(CC(=O)c1ccc(Br)cc1)=N\O)Nc1ccccc1
GI50 [3]: 24.5 µM (inactive)
GI50 [4]: > 100 µM (inactive)
GI50 [6]: > 100 µM (inactive)
GI50 [7]: 73.3 µM (inactive)
GI50 [8]: > 100 µM (inactive)
GI50 [9]: > 100 µM (inactive)
GI50 [10]: > 100 µM (inactive)
GI50 [11]: 57.4 µM (inactive)
GI50 [12]: 65.2 µM (inactive)
GI50 [13]: > 100 µM (inactive)
GI50 [14]: 96.4 µM (inactive)
GI50 [15]: 96.6 µM (inactive)
GI50 [16]: 10.7 µM (inactive)
GI50 [17]: > 100 µM (inactive)

CC(C)=CCCC1(C)C=Cc2c(c(C)cc3c2[nH]c2cc(O)ccc23)O1 (configuration not stated)
GI50 [1]: > 25 µM (inactive)
GI50 [2]: > 25 µM (inactive)
GI50 [3]: > 25 µM (inactive)
GI50 [4]: > 25 µM (inactive)
GI50 [5]: 24 µM (inactive)
GI50 [6]: > 25 µM (inactive)
GI50 [7]: > 25 µM (inactive)
GI50 [8]: > 25 µM (inactive)
GI50 [9]: > 25 µM (inactive)
GI50 [10]: > 25 µM (inactive)
GI50 [11]: > 25 µM (inactive)
GI50 [12]: 22.5 µM (inactive)
GI50 [13]: > 25 µM (inactive)
GI50 [14]: > 25 µM (inactive)
GI50 [15]: > 25 µM (inactive)
GI50 [16]: > 25 µM (inactive)

N#CC(NNC(=O)c1ccccc1O)c1ccccc1O (configuration not stated)
GI50 [1]: 4.06 µM (inactive)
GI50 [2]: 9.53 µM (inactive)
GI50 [3]: 2.23 µM (inactive)
GI50 [4]: 2.29 µM (inactive)
GI50 [5]: 0.472 µM (active)
GI50 [6]: 5.82 µM (inactive)
GI50 [7]: 13.6 µM (inactive)
GI50 [8]: 2.52 µM (inactive)
GI50 [9]: 5.27 µM (inactive)
GI50 [10]: 8.45 µM (inactive)
GI50 [11]: 41.4 µM (inactive)
GI50 [12]: 1.27 µM (inactive)
GI50 [13]: 3.18 µM (inactive)
GI50 [14]: 3.26 µM (inactive)
GI50 [15]: 2.44 µM (inactive)
GI50 [16]: 4.03 µM (inactive)
GI50 [17]: 2.06 µM (inactive)

COc1ccc(C2=Nn3c(nc4sc(C)c(C)c4c3=O)SC2)cc1
GI50 [18]: > 100 µM (inactive)
GI50 [1]: > 100 µM (inactive)
GI50 [19]: > 100 µM (inactive)
GI50 [2]: > 100 µM (inactive)
GI50 [3]: > 100 µM (inactive)
GI50 [4]: > 100 µM (inactive)
GI50 [5]: > 100 µM (inactive)
GI50 [6]: > 100 µM (inactive)
GI50 [7]: > 100 µM (inactive)
GI50 [8]: > 100 µM (inactive)
GI50 [9]: > 100 µM (inactive)
GI50 [10]: > 100 µM (inactive)
GI50 [11]: > 100 µM (inactive)
GI50 [20]: > 100 µM (inactive)
GI50 [12]: > 100 µM (inactive)
GI50 [13]: > 100 µM (inactive)
GI50 [15]: > 100 µM (inactive)
GI50 [16]: > 100 µM (inactive)
GI50 [17]: > 100 µM (inactive)

CC(C)[Si](Oc1cc2c3c(ccc2c(O)c1[C@@H](C)CO[Si](C)(C)C(C)(C)C)C(C)(C)CCC3)(C(C)C)C(C)C
GI50 [18]: > 100 µM (inactive)
GI50 [1]: > 100 µM (inactive)
GI50 [19]: > 100 µM (inactive)
GI50 [2]: > 100 µM (inactive)
GI50 [3]: 29.9 µM (inactive)
GI50 [4]: > 100 µM (inactive)
GI50 [5]: 51.5 µM (inactive)
GI50 [6]: > 100 µM (inactive)
GI50 [7]: > 100 µM (inactive)
GI50 [8]: 86.1 µM (inactive)
GI50 [9]: > 100 µM (inactive)
GI50 [10]: > 100 µM (inactive)
GI50 [11]: > 100 µM (inactive)
GI50 [20]: > 100 µM (inactive)
GI50 [12]: 17.6 µM (inactive)
GI50 [13]: > 100 µM (inactive)
GI50 [15]: > 100 µM (inactive)
GI50 [16]: 49.8 µM (inactive)
GI50 [17]: > 100 µM (inactive)
